# In PMC4767141, “Discovery of Potent, Orally Bioavailable, Small-Molecule Inhibitors of WNT Signaling from a Cell-Based Pathway Screen” (Journal of Medicinal Chemistry, 2015):
# Columns and labels:
# PI3 KINASE (P85A) = assay: Millipore kinase panel; format: biochemical; conditions: 1 μM, ATP at Km
# Method: (§1) Supplementary Table S3. Activity of compound 44 tested 1 μM across a panel of 209 non-mutated kinases (Millipore Panel: data expressed as percentage control response versus each kinase tested at its respective Km for ATP). No inhibition was considered sufficient to warrant follow-up with IC50 determination.
# (§2) % Inhibition of % Inhibition of […]
# (§3) α1 (non-selective) (antagonist radioligand) 8 NTS1 (NT1) (h) (agonist radioligand) -8 α2 (non-selective) (antagonist radioligand) 0 δ2 (DOP) (h) (agonist radioligand) 22 β1 (h) (agonist radioligand) 5 κ (KOP) (agonist radioligand) 72 […]
# (§4) AT1 (h) (antagonist radioligand) 8 NOP (ORL1) (h) (agonist radioligand) 3 BZD (central) (agonist radioligand) 18 TP (h) (TXA2/PGH2) (antagonist radioligand) NT B2 (h) (agonist radioligand) 0 5-HT1A (h) (agonist radioligand) 19 […]
# (§5) CCK1 (CCKA) (h) (agonist radioligand) 2 5-HT2A (h) (antagonist radioligand) 1 D1 (h) (antagonist radioligand) 7 5-HT2B (h) (agonist radioligand) 6
# (§6) D2S (h) (antagonist radioligand) 5 5-HT3 (h) (antagonist radioligand) 9 ETA (h) (agonist radioligand) -9 5-HT5a (h) (agonist radioligand) 1
# (§7) GABA (non-selective) (agonist radioligand) 5 5-HT6 (h) (agonist radioligand) 3 GAL2 (h) (agonist radioligand) 2 5-HT7 (h) (agonist radioligand) 1
# (§8) CXCR2 (IL-8B) (h) (agonist radioligand) -6 sst (non-selective) (agonist radioligand) 4 CCR1 (h) (agonist radioligand) -4 VPAC1 (VIP1) (h) (agonist radioligand) 0 H1 (h) (antagonist radioligand) 16 V1a (h) (agonist radioligand) -7
# (§9) H2 (h) (antagonist radioligand) -2 Ca2+ channel (L, verapamil site) (phenylalkylamine) (antagonist radioligand) 7 MC4 (h) (agonist radioligand) 4 KV channel (antagonist radioligand) -13 MT1 (ML1A) (h) (agonist radioligand) 34 SKCa channel (antagonist radioligand) 3 M1 (h) (antagonist radioligand) 21 Na+ channel (site 2) (antagonist radioligand) 29 M2 (h) (antagonist radioligand) 38 Cl- channel (GABA-gated) (antagonist radioligand) 31 M3 (h) (antagonist radioligand) 46 norepinephrine transporter (h) (antagonist radioligand) 14 NK2 (h) (agonist radioligand) -17 dopamine transporter (h) (antagonist radioligand) 40 5-HT transporter (h) (antagonist radioligand) 70 […]
# (§10) receptors, ion channels and enzymes (CEREP). Results are expressed as percent inhibition of control specific binding. […]
# (§11) kinases (Millipore Panel: data expressed as percentage control response versus each kinase tested […]
# (§12) at its respective Km for ATP).
# (§13) Supplementary Figure S1. Dose-dependent reduction of endogenous cMYC mRNA measured by RT-PCR (n = 8) after treatment of 7dF3 cells with 74 at the stated concentration for 2 h […]
# PI3 KINASE (P110A/P65A) = assay: Millipore kinase panel; format: biochemical; conditions: 1 μM, ATP at Km
# Method: as §1, §2, §3, §4, §5, §6, §7, §8, §9, §10, §11, §12, §13
# PI3 KINASE (P110B/P85A) = assay: Millipore kinase panel; format: biochemical; conditions: 1 μM, ATP at Km
# Method: as §1, §2, §3, §4, §5, §6, §7, §8, §9, §10, §11, §12, §13
# PI3 KINASE (P110D/P85A) = assay: Millipore kinase panel; format: biochemical; conditions: 1 μM, ATP at Km
# Method: as §1, §2, §3, §4, §5, §6, §7, §8, §9, §10, §11, §12, §13
# CK1(Y) = assay: Millipore kinase panel; format: biochemical; conditions: 1 μM, ATP at Km
# Method: as §1, §2, §3, §4, §5, §6, §7, §8, §9, §10, §11, §12, §13
# [1] = system: PI3 KINASE (P110A(E545K)/P85A); assay: Millipore kinase panel; format: biochemical; conditions: 1 μM, ATP at Km
# Method: as §1, §2, §3, §4, §5, §6, §7, §8, §9, §10, §11, §12, §13
# PI3 KINASE (P65A) = assay: Millipore kinase panel; format: biochemical; conditions: 1 μM, ATP at Km
# Method: as §1, §2, §3, §4, §5, §6, §7, §8, §9, §10, §11, §12, §13
# [2] = system: PI3 KINASE (P110A(H1047R)/P85A); assay: Millipore kinase panel; format: biochemical; conditions: 1 μM, ATP at Km
# Method: as §1, §2, §3, §4, §5, §6, §7, §8, §9, §10, §11, §12, §13
# [3] = system: PI3 KINASE (P110A(E542K)/P85A); assay: Millipore kinase panel; format: biochemical; conditions: 1 μM, ATP at Km
# Method: as §1, §2, §3, §4, §5, §6, §7, §8, §9, §10, §11, §12, §13
# CK2ALPHA2 = target: T1, CK2ALPHA2 (Homo sapiens, UniProt P19784); assay: Millipore kinase panel; format: biochemical; conditions: read-out: % Control
# T1 construct: purchased Millipore KinaseProfiler (kinases); Cerep (receptors and ion channels)
# MER = target: T2, MER (Homo sapiens, UniProt Q12866); assay: Millipore kinase panel; format: biochemical; conditions: read-out: % Control
# T2 construct: purchased Millipore KinaseProfiler (kinases); Cerep (receptors and ion channels)
# CKIT(D816H) = target: T3, CKIT(D816H) (Homo sapiens, UniProt P10721, D816H); assay: Millipore kinase panel; format: biochemical; conditions: read-out: % Control
# T3 construct: purchased Millipore KinaseProfiler (kinases); Cerep (receptors and ion channels)
# ABL(Y253F) = target: T4, ABL(Y253F) (Homo sapiens, UniProt P00519, Y253F); assay: Millipore kinase panel; format: biochemical; conditions: read-out: % Control
# T4 construct: purchased Millipore KinaseProfiler (kinases); Cerep (receptors and ion channels)
# PKBBETA = target: T5, PKBBETA (Homo sapiens, UniProt P31751); assay: Millipore kinase panel; format: biochemical; conditions: read-out: % Control
# T5 construct: purchased Millipore KinaseProfiler (kinases); Cerep (receptors and ion channels)
# CYP450 2D6 = CYP450 2D6 (Homo sapiens, UniProt P10635); assay: CYP450 inhibition; format: in vitro ADME
# CYP450 3A4 = CYP450 3A4 (Homo sapiens, UniProt P08684); assay: CYP450 inhibition; format: in vitro ADME
# PKCIOTA = target: T6, PKCIOTA (Homo sapiens, UniProt P41743); assay: Millipore kinase panel; format: biochemical; conditions: read-out: % Control
# T6 construct: purchased Millipore KinaseProfiler (kinases); Cerep (receptors and ion channels)
# CYP450 2C19 = CYP450 2C19 (Homo sapiens, UniProt P33261); assay: CYP450 inhibition; format: in vitro ADME
# AURKC = target: T7, AURKC (Homo sapiens, UniProt Q9UQB9); assay: Millipore kinase panel; format: biochemical; conditions: read-out: % Control
# T7 construct: purchased Millipore KinaseProfiler (kinases); Cerep (receptors and ion channels)
# IR = target: T8, IR (Homo sapiens, UniProt P06213); assay: Millipore kinase panel; format: biochemical; conditions: read-out: % Control
# T8 construct: purchased Millipore KinaseProfiler (kinases); Cerep (receptors and ion channels)
# DDR2 = target: T9, DDR2 (Homo sapiens, UniProt Q16832); assay: Millipore kinase panel; format: biochemical; conditions: read-out: % Control
# T9 construct: purchased Millipore KinaseProfiler (kinases); Cerep (receptors and ion channels)
# PKCGAMMA = target: T10, PKCGAMMA (Homo sapiens, UniProt P05129); assay: Millipore kinase panel; format: biochemical; conditions: read-out: % Control
# T10 construct: purchased Millipore KinaseProfiler (kinases); Cerep (receptors and ion channels)
# CAMKIIDELTA = target: T11, CAMKIIDELTA (Homo sapiens, UniProt Q13557); assay: Millipore kinase panel; format: biochemical; conditions: read-out: % Control
# T11 construct: purchased Millipore KinaseProfiler (kinases); Cerep (receptors and ion channels)
# P70S6K = target: T12, P70S6K (Homo sapiens, UniProt P23443); assay: Millipore kinase panel; format: biochemical; conditions: read-out: % Control
# T12 construct: purchased Millipore KinaseProfiler (kinases); Cerep (receptors and ion channels)
# TP (h) (TXA2/PGH2) = target: T13, TP (h) (TXA2/PGH2) (Homo sapiens, UniProt P21731); assay: CEREP binding panel; conditions: antagonist radioligand, read-out: % Inhibition of Control Specific Binding
# T13 construct: purchased Millipore KinaseProfiler (kinases); Cerep (receptors and ion channels)
# Clint determination = format: in vitro ADME; conditions: mouse, microsomes, pH 7.4, mouse microsomes, read-out: Clint (μL/min/mg) Mouse
# T13 sequence (P21731 whole entry): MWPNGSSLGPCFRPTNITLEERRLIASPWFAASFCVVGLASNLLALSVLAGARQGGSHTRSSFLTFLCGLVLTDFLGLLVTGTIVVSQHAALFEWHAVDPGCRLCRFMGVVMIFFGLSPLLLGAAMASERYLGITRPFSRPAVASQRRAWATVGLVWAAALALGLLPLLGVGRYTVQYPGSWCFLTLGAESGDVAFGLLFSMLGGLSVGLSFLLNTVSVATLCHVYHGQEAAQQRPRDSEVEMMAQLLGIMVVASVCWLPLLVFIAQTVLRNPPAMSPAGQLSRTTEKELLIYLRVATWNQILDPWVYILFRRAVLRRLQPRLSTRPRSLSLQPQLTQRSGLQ
# T11 sequence (Q13557 whole entry): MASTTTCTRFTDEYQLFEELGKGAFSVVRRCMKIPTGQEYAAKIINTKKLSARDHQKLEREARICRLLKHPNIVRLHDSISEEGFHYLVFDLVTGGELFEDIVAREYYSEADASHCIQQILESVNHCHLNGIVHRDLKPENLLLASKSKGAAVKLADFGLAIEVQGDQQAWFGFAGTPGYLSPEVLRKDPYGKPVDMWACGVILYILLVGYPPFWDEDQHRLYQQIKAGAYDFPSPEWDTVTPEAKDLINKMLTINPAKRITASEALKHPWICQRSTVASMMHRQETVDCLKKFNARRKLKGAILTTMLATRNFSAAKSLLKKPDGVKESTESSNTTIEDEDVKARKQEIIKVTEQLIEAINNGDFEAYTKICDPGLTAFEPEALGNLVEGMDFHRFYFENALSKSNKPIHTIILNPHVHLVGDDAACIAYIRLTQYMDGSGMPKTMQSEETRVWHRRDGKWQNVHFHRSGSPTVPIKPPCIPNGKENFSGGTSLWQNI
# T12 sequence (P23443 whole entry): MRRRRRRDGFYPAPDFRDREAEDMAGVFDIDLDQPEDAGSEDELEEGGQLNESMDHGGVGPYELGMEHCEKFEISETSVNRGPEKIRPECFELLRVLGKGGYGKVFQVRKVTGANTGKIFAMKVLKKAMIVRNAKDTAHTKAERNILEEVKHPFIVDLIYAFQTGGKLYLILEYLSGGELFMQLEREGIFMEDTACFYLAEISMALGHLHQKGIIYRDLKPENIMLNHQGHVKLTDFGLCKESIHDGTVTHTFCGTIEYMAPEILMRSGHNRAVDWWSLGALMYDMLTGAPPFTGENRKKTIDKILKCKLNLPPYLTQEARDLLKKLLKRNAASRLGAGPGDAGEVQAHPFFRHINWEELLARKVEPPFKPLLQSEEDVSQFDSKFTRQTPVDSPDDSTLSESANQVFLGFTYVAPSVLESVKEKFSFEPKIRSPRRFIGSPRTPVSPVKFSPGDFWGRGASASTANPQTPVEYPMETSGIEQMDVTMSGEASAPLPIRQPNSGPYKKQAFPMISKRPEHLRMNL
# T8 sequence (P06213 28-1382): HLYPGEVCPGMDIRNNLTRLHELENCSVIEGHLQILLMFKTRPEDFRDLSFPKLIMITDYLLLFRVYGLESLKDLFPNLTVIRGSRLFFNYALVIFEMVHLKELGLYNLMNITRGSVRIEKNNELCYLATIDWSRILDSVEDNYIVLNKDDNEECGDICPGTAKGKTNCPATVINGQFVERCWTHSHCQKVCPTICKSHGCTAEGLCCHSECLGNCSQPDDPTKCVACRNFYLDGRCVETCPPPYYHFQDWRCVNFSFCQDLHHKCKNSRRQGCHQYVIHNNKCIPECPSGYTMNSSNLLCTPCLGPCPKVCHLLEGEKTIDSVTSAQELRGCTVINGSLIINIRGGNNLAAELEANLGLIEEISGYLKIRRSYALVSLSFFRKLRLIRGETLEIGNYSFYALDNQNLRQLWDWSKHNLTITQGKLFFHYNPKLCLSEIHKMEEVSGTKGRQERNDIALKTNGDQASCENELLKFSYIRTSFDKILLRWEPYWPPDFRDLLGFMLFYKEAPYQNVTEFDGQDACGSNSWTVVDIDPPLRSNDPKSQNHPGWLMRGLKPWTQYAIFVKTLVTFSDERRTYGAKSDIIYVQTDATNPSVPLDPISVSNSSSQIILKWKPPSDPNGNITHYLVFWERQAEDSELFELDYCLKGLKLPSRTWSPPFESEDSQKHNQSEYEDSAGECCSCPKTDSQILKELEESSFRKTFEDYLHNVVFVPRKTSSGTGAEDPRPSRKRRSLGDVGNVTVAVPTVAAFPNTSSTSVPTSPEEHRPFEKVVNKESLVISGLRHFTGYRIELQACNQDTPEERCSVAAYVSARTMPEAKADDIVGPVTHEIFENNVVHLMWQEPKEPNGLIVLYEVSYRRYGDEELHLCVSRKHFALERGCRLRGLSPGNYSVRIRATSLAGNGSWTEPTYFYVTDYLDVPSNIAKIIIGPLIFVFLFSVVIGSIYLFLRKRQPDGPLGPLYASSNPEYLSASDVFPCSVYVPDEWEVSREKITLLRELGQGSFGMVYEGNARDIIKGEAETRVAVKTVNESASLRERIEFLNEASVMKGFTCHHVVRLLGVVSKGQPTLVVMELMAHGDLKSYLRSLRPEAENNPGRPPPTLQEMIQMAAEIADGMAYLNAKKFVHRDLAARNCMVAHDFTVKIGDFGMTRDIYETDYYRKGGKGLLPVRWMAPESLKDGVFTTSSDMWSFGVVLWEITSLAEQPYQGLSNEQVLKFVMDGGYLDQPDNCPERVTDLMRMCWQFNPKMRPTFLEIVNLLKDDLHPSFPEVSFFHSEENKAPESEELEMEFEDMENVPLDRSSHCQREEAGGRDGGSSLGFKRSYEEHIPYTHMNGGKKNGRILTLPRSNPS
# T9 sequence (Q16832 22-855): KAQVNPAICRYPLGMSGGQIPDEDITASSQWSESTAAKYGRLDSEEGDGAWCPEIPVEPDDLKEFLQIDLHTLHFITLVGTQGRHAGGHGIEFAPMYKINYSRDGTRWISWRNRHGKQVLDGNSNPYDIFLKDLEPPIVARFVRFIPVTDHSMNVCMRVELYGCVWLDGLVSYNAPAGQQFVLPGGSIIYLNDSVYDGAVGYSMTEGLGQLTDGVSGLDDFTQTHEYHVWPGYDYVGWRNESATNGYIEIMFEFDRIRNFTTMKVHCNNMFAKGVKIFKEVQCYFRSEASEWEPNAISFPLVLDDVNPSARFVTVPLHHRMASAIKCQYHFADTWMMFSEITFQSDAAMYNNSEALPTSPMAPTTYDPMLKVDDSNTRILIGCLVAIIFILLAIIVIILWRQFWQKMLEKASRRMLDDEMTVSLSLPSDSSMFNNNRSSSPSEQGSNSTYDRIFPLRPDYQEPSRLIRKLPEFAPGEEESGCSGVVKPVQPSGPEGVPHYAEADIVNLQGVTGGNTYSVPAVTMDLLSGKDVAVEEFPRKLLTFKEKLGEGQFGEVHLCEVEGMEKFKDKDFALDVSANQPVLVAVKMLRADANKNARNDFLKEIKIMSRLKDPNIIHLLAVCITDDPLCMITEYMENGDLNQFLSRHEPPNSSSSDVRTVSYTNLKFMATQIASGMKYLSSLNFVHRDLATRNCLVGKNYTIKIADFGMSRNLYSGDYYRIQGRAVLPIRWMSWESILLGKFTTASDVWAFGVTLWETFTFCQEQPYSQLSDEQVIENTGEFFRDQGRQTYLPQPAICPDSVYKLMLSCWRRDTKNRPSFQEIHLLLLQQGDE
# Sequence of CYP450 2C19 (P33261 whole entry): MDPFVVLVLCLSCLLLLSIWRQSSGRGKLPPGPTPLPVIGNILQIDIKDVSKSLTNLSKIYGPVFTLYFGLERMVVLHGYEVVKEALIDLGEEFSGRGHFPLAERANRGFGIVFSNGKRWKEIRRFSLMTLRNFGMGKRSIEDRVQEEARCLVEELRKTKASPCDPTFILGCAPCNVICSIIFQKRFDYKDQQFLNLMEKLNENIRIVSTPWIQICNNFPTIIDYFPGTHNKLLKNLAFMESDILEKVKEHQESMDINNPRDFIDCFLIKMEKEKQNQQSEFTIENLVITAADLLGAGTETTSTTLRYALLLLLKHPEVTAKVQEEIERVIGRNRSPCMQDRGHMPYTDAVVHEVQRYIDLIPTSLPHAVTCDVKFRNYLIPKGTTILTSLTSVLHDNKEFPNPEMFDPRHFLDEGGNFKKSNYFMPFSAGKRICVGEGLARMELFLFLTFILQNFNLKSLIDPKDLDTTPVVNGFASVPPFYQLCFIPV
# T7 sequence (Q9UQB9 whole entry): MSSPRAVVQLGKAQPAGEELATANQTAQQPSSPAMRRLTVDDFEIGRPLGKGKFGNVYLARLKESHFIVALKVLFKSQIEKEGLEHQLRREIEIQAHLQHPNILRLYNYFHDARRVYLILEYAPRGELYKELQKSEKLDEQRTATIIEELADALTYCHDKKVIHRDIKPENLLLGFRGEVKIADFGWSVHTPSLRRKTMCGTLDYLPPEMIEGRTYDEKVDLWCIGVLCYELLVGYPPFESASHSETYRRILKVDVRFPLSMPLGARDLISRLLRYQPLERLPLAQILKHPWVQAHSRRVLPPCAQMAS
smiles,measurement,setting,value
"Cn1cc(-c2ccc(-c3cncc(Cl)c3N3CCC4(CCNC4=O)CC3)cc2)cn1 [Compound 74, 8-(3-Chloro-5-(4-(1-methyl-1H-pyrazol-4-yl)phenyl)pyridin-4-yl)-2,8-diazaspiro[4.5]decan-1-one]",% Control,PI3 KINASE (P85A),-1%
same,% Control,PI3 KINASE (P110A/P65A),0%
same,% Control,PI3 KINASE (P110B/P85A),-1%
same,% Control,PI3 KINASE (P110D/P85A),0%
same,% Control,CK1(Y),-4%
same,% Control,[1],-1%
same,% Control,PI3 KINASE (P65A),0%
same,% Control,[2],2%
same,% Control,[3],0%
same,remaining activity at 1 µM,CK2ALPHA2,-1%
same,remaining activity at 1 µM,MER,-6%
same,remaining activity at 1 µM,CKIT(D816H),-7%
same,remaining activity at 1 µM,ABL(Y253F),-11%
same,remaining activity at 1 µM,PKBBETA,-13%
same,IC50,CYP450 2D6,> 20 µM
same,IC50,CYP450 3A4,11.4 µM
same,remaining activity at 1 µM,PKCIOTA,-25%
same,IC50,CYP450 2C19,8 µM
same,remaining activity at 1 µM,AURKC,-10%
same,remaining activity at 1 µM,IR,-8%
same,remaining activity at 1 µM,DDR2,5%
same,remaining activity at 1 µM,PKCGAMMA,2%
same,remaining activity at 1 µM,CAMKIIDELTA,4%
same,remaining activity at 1 µM,P70S6K,-15%
"O=C1NCCC12CCN(c1c(Cl)cncc1-c1ccc(N3CCOCC3)cc1)CC2 [Compound 44, 8-(3-Chloro-5-(4-morpholin-4-ylphenyl)pyridin-4-yl)-2,8-diazaspiro[4.5]decan-1-one]",inhibition at 10 µM,TP (h) (TXA2/PGH2),14%
same,microsomal CLint at 1 μM,Clint determination,290 µL/min/mg
